Data set [1] can be described thus: Aqueous solubility at 37° C. in solutions of pH 1.2 to 9.0. The format is physicochemical. The protocol:
The aqueous solubility of (R)-5-(2-(benzylamino)ethyl)-1-(6,8-difluorochroman-3-yl)-1H-imidazole-2(3H)-thione was determined in triplicate at 37° C. Aqueous solutions of HCl (pH 1.2, 2.0, 3.0), potassium chloride (pH 1.2, 2.0), acid phthalate (pH 3.0), acetate (pH 4.5, 5.5), phosphate (pH 7.4) and boric acid (pH 9.0) were tested.

A short description of data set [2]: Solubility in organic solvents according to Eur. Ph. Chapter 5.11. Type of data set: physicochemical. The protocol: The solubility of non-micronized and micronized (R)-5-(2-(benzylamino)ethyl)-1-(6,8-difluorochroman-3-yl)-1H-imidazole-2(3H)-thione in several organic solvents was determined.
Solubility Solubility was evaluated according to Eur. Ph. Chapter 5.11 at room temperature.
The following descriptions are used to describe the degree of solubility: […]

The next data set deals with T1, dopamine-β-hydroxylase (Homo sapiens, UniProt P09172).
T1 sequence (P09172 1-617): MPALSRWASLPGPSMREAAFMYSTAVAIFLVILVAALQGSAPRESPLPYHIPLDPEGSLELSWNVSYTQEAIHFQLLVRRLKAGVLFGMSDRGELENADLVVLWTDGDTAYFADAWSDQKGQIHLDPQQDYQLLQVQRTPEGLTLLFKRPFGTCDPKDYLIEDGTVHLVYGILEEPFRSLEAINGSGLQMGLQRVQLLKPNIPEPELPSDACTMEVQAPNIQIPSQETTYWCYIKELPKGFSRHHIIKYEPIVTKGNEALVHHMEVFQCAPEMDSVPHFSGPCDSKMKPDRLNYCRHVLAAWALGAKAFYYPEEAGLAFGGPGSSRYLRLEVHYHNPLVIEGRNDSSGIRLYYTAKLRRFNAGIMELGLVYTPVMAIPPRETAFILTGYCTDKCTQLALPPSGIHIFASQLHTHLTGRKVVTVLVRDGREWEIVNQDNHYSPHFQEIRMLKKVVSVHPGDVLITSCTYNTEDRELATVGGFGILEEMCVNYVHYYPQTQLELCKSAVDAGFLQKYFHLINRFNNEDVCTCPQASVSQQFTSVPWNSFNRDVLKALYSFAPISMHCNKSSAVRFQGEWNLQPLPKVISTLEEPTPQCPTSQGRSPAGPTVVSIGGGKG
As to conditions: background statement, WO2004/033447 / WO2008/136695; cited from earlier work.

For data set [3] the following is noted: background statement; cited from earlier work.

Consider `Fc1cc(F)c2c(c1)C[C@@H](n1c(CCNCc3ccccc3)c[nH]c1=S)CO2` [(R)-5-(2-(benzylamino)ethyl)-1-(6,8-difluorochroman-3-yl)-1H-imidazole-2(3H)-thione], for which, in data set [1], the “Medium of maximum aqueous solubility” value was “HCl 0.01 (pH 2.0)”. Besides, in data set [1] (HCl 0.01 (pH 2.0)), the “Aqueous solubility after micronization relative to non-micronized” value is “lower”. For the same compound, the “Aqueous solubility as a function of pH” value in data set [1] (pH 1.2 to 9.0, both non-micronized and micronized) is “decreases with the increase of pH”. In addition, the “Solubility in polar organic aprotic solvents” value in data set [2] (all of the polar organic aprotic solvents tested) is reported as “either sparingly soluble, slightly soluble or very slightly soluble”. Moreover, the Solubility description entry in data set [2] (micronized particles, 1,4-Dioxane, room temperature) was “Very slightly soluble (from 1000 to 10,000 parts)”; in data set [2] (micronized particles, 2-propanol, room temperature), “Insoluble”; in data set [2] (micronized particles, Absolute ethanol, room temperature) it was “Very slightly soluble (from 1000 to 10,000 parts)”; in data set [2] (micronized particles, Acetone, room temperature) it was “Slightly soluble (from 100 to 1000 parts)”; in data set [2] (micronized particles, Acetonitrile, room temperature) it was “Very slightly soluble (from 1000 to 10,000 parts)”; in data set [2] (micronized particles, Chloroform, room temperature), “Slightly soluble (from 100 to 1000 parts)”. The Solubility description result in data set [2] (micronized particles, Cyclohexane, room temperature) is recorded as “Insoluble”; in data set [2] (micronized particles, DMSO, room temperature) it was “Slightly soluble (from 100 to 1000 parts)”; in data set [2] (micronized particles, Dichloromethane, room temperature) it was “Very slightly soluble (from 1000 to 10,000 parts)”; in data set [2] (micronized particles, Dimethylformamide, room temperature), “Sparingly soluble (from 30 to 100 parts)”; in data set [2] (micronized particles, Ethyl acetate, room temperature), “Very slightly soluble (from 1000 to 10,000 parts)”; in data set [2] (micronized particles, Iso-octane (2,2,4-trimethylpentane), room temperature), “Practically insoluble (greater than or equal to 10,000 parts)”. Further, the Solubility description entry in data set [2] (micronized particles, Methanol or acetonitrile acidified with 0.1% formic acid or TFA, room temperature) is recorded as “Slightly soluble (from 100 to 1000 parts)”; in data set [2] (micronized particles, Methanol, room temperature), “Very slightly soluble (from 1000 to 10,000 parts)”; in data set [2] (micronized particles, Methyl ethyl ketone, room temperature), “Slightly soluble (from 100 to 1000 parts)”; in data set [2] (micronized particles, N,N-methylpirrolidone, room temperature), “Sparingly soluble (from 30 to 100 parts)”; in data set [2] (micronized particles, Tetrahydrofuran, room temperature), “Sparingly soluble (from 30 to 100 parts)”; in data set [2] (non-micronized particles, 1,4-Dioxane, room temperature), “Slightly soluble (from 100 to 1000 parts)”. In addition, the Solubility description result in data set [2] (non-micronized particles, 2-propanol, room temperature) was “Insoluble”; in data set [2] (non-micronized particles, Absolute ethanol, room temperature) it was “Practically insoluble (greater than or equal to 10,000 parts)”; in data set [2] (non-micronized particles, Acetone, room temperature) it was “Slightly soluble (from 100 to 1000 parts)”; in data set [2] (non-micronized particles, Acetonitrile, room temperature), “Very slightly soluble (from 1000 to 10,000 parts)”; in data set [2] (non-micronized particles, Chloroform, room temperature) it was “Very slightly soluble (from 1000 to 10,000 parts)”; in data set [2] (non-micronized particles, Cyclohexane, room temperature), “Insoluble”. The Solubility description entry was “Sparingly soluble (from 30 to 100 parts)” in data set [2] (non-micronized particles, DMSO, room temperature); “Slightly soluble (from 100 to 1000 parts)” in data set [2] (non-micronized particles, Dichloromethane, room temperature); “Sparingly soluble (from 30 to 100 parts)” in data set [2] (non-micronized particles, Dimethylformamide, room temperature); “Very slightly soluble (from 1000 to 10,000 parts)” in data set [2] (non-micronized particles, Ethyl acetate, room temperature); “Sparingly soluble (from 30 to 100 parts)” in data set [2] (non-micronized particles, Hexafluoroisopropanol, room temperature); “Insoluble” in data set [2] (non-micronized particles, Iso-octane (2,2,4-trimethylpentane), room temperature). The Solubility description entry is listed as “Very slightly soluble (from 1000 to 10,000 parts)” in data set [2] (non-micronized particles, Isopropyl acetate, room temperature); “Sparingly soluble (from 30 to 100 parts)” in data set [2] (non-micronized particles, Methanol or acetonitrile acidified with 0.1% formic acid or TFA, room temperature); “Very slightly soluble (from 1000 to 10,000 parts)” in data set [2] (non-micronized particles, Methanol, room temperature); “Slightly soluble (from 100 to 1000 parts)” in data set [2] (non-micronized particles, Methyl ethyl ketone, room temperature); “Sparingly soluble (from 30 to 100 parts)” in data set [2] (non-micronized particles, N,N-methylpirrolidone, room temperature); “Sparingly soluble (from 30 to 100 parts)” in data set [2] (non-micronized particles, Tetrahydrofuran, room temperature). For the same compound, the Solubility description entry is given as “Very slightly soluble (from 1000 to 10,000 parts)” in data set [2] (non-micronized particles, Toluene, room temperature) and “Slightly soluble (from 100 to 1000 parts)” in data set [2] (non-micronized particles, Trifluoroethanol, room temperature). In data set [2] (most of the polar organic solvents tested), the “Solubility in polar organic solvents” value is reported as “mostly either sparingly soluble, slightly soluble or very slightly soluble”. For the same compound, in data set [2] (organic solvents, room temperature), the “Change in the solubility profile, before versus after micronization” value is “no overall significant changes”.

As to `Cl.NCCc1c[nH]c(=S)n1[C@H]1COc2c(F)cc(F)cc2C1` [Compound 1, (R)-5-(2-Aminoethyl)-1-(6,8-difluorochroman-3-yl)-1,3-dihydroimidazole-2-thione hydrochloride], at dopamine-β-hydroxylase, the “Inhibition of dopamine-β-hydroxylase (DβH)” value is “potent”. Further, the Toxicity result in data set [3] is “non-toxic”.

Values taken from patent publication US10329268B2, “Processes for preparing medicaments for the treatment of cardiovascular diseases and intermediates for use therein” (Bial-Portela & CA., S.A., priority 2013, dated 2019).
